The nature of data set [1]: Ratio of drug level in brain to plasma in Sprague-Dawley rat at 50 mg/kg, po after 1 hr. It is filed as ADME, organism-based. To be noted: read-out: BPR.
The nature of data set [2]: Ratio of drug level in brain to plasma in Sprague-Dawley rat at 50 mg/kg, po after 3 hrs. The class given is ADME, organism-based. As to conditions: read-out: BPR.
Data set [3] can be described thus: Plasma concentration in Sprague-Dawley rat at 50 mg/kg, po after 3 hrs by HPLC-MS/MS analysis. It is filed as ADME, organism-based.
Data set [4] can be described thus: Toxicity in Balb/c mouse assessed as survival rate at 1000 mg/kg, ip qd administered for 6 days followed by 1 week recovery (reference value: 100%). The class given is organism-based. To be noted: in vivo.

Regarding `COc1ccc(C(=O)c2ccc3c(ccn3Cc3ccc(C(=O)NO)cc3)c2)cc1`, the Kp at 1 h in data set [1] was 1.19. Also, in data set [2], the Kp at 3 h was found to be 0.86. For the same compound, the concentration at 3 h in data set [3] was determined as 7.3 ng/mL. The survival in data set [4] amounted to 100%.

(Values after ChEMBL document CHEMBL4196108, “5-Aroylindoles Act as Selective Histone Deacetylase 6 Inhibitors Ameliorating Alzheimer's Disease Phenotypes” (J Med Chem, 2018).)
